This passage reports T/C results from PubChem BioAssay AID250 (DTP/NCI, 2004).

The subject of the experiment is BDF1 mice, L1210 leukemia sc, survival T/C. Description: NCI In Vivo Anticancer Drug Screen. Data for tumor model L1210 Leukemia (subcutaneous) in B6D2F1 (BDF1) mice. As to conditions: endpoint: median survival time, higher = longer survival. The method, boiled down:
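Mice carrying transplanted tumors received test compounds, and survival or tumor size was measured. Values are the treated-group measurement (T) divided by that of the vehicle-treated control group (C).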

Molecules are shown by their SMILES. Values joined by “and” are separate entries in the source; they are usually repeats but may differ in a detail not shown here. Identical values can stand only once. Inconclusive results and toxic doses are left out.

`C[C@H](N)C(=O)N[C@@H]1[C@H]2C(=C(O)C[C@@H](O)[C@@H]2O)C(=O)O[C@@H]1C`: the T/C is, setting by setting: (dose: 39.0 mg/kg/injection, schedule: Q01DX Z (sc), vehicle: saline) 109 % of control; (dose: 65.0 mg/kg/injection, schedule: Q01DX Z (sc), vehicle: saline) 109 % of control; (dose: 108.0 mg/kg/injection, schedule: Q01DX Z (sc), vehicle: saline) 100 % of control; (dose: 180.0 mg/kg/injection, schedule: Q01DX Z (sc), vehicle: saline) 100 % of control and 104 % of control; (dose: 180.0 mg/kg/injection, schedule: Q#A X Z (sc), vehicle: saline) 103 % of control; (dose: 300.0 mg/kg/injection, schedule: Q01DX Z (sc), vehicle: saline) 100 % of control and 109 % of control. The T/C runs as follows: (dose: 300.0 mg/kg/injection, schedule: Q#A X Z (sc), vehicle: saline) 107 % of control; (dose: 389.0 mg/kg/injection, schedule: Q01DX Z (sc), vehicle: saline) 112 % of control; (dose: 500.0 mg/kg/injection, schedule: Q01DX Z (sc), vehicle: saline) 107 % of control and 118 % of control; (dose: 500.0 mg/kg/injection, schedule: Q#A X Z (sc), vehicle: saline) 103 % of control; (dose: 833.0 mg/kg/injection, schedule: Q01DX Z (sc), vehicle: saline) 163 % of control; (dose: 1388.0 mg/kg/injection, schedule: Q#A X Z (sc), vehicle: saline) 115 % of control. Besides, the T/C (dose: 1800.0 mg/kg/injection, schedule: Q01DX Z (sc), vehicle: saline) was 150 % of control.

In the case of `CN(C)CCN(Cc1ccccc1)c1ccccn1`, the T/C (dose: 16.0 mg/kg/injection, schedule: Q01DX001 (sc), vehicle: saline) was 95 % of control and 100 % of control; the T/C (dose: 20.0 mg/kg/injection, schedule: Q01DX001 (sc), vehicle: saline) was 97 % of control and 100 % of control; the T/C (dose: 24.0 mg/kg/injection, schedule: Q01DX001 (sc), vehicle: saline) was 96 % of control and 100 % of control; the T/C (dose: 30.0 mg/kg/injection, schedule: Q01DX001 (sc), vehicle: saline) is 98 % of control and 100 % of control.

For `Nc1ccn(C2CC(O)C(CO)O2)c(=O)n1` (configuration not stated), the T/C runs as follows: (dose: 37.5 mg/kg/injection, schedule: Q06HX018 (sc), vehicle: water) 108 % of control; (dose: 37.5 mg/kg/injection, schedule: Q## X018 (sc), vehicle: water) 111 % of control; (dose: 75.0 mg/kg/injection, schedule: Q03HX008 (sc), vehicle: water) 90 % of control and 93 % of control; (dose: 75.0 mg/kg/injection, schedule: Q06HX018 (sc), vehicle: water) 102 % of control; (dose: 75.0 mg/kg/injection, schedule: Q## X018 (sc), vehicle: water) 100 % of control; (dose: 150.0 mg/kg/injection, schedule: Q03HX008 (sc), vehicle: water) 100 % of control and 102 % of control. For the same compound, the T/C (dose: 150.0 mg/kg/injection, schedule: Q06HX018 (sc), vehicle: water) was 98 % of control; the T/C (dose: 150.0 mg/kg/injection, schedule: Q## X018 (sc), vehicle: water) was 100 % of control; the T/C (dose: 300.0 mg/kg/injection, schedule: Q06HX018 (sc), vehicle: water) is 106 % of control; the T/C (dose: 300.0 mg/kg/injection, schedule: Q## X018 (sc), vehicle: water) is 105 % of control.

For `ClCCN(CCCl)CCNc1ccnc2cc(Cl)ccc12`, the T/C by setting is: (dose: 1.08 mg/kg/injection, schedule: Q01DX Z (sc), vehicle: water) 100 % of control; (dose: 8.4 mg/kg/injection, schedule: Q01DX Z (sc), vehicle: water) 100 % of control; (dose: 23.0 mg/kg/injection, schedule: Q01DX Z (sc), vehicle: water) 100 % of control; (dose: 39.0 mg/kg/injection, schedule: Q01DX Z (sc), vehicle: water) 100 % of control; (dose: 65.0 mg/kg/injection, schedule: Q01DX Z (sc), vehicle: olive oil, sesame oil, peanut oil) 100 % of control.

For `C[n+]1ccc(Nc2ccc(NC(=O)c3ccc(Nc4cc[n+](C)c5ccc(N)cc45)cc3N)cc2)cc1`, the T/C is, setting by setting: (dose: 0.5 mg/kg/injection, schedule: Q03HX024 (ip), vehicle: water) 111 % of control; (dose: 1.0 mg/kg/injection, schedule: Q01DX009 (ip), vehicle: water) 116 % of control; (dose: 2.0 mg/kg/injection, schedule: Q01DX009 (ip), vehicle: water) 155 % of control; (dose: 2.0 mg/kg/injection, schedule: Q01DX009 (sc), vehicle: water) 110 % of control; (dose: 2.0 mg/kg/injection, schedule: Q03HX024 (ip), vehicle: water) 183 % of control; (dose: 4.0 mg/kg/injection, schedule: Q01DX009 (ip), vehicle: water) 233 % of control. Also, the T/C is 170 % of control (dose: 4.0 mg/kg/injection, schedule: Q01DX009 (sc), vehicle: water); 120 % of control (dose: 4.0 mg/kg/injection, schedule: Q03HX008 (sc), vehicle: water); 288 % of control (dose: 4.0 mg/kg/injection, schedule: Q03HX024 (ip), vehicle: water); 165 % of control (dose: 4.0 mg/kg/injection, schedule: Q03HX024 (sc), vehicle: water); 194 % of control (dose: 8.0 mg/kg/injection, schedule: Q01DX009 (ip), vehicle: water); 225 % of control (dose: 8.0 mg/kg/injection, schedule: Q01DX009 (sc), vehicle: water). For the same compound, the T/C is, setting by setting: (dose: 8.0 mg/kg/injection, schedule: Q03HX024 (ip), vehicle: water) 188 % of control; (dose: 8.0 mg/kg/injection, schedule: Q03HX024 (sc), vehicle: water) 220 % of control; (dose: 8.0 mg/kg/injection, schedule: Q04DX003 (sc), vehicle: water) 100 % of control; (dose: 16.0 mg/kg/injection, schedule: Q01DX001 (sc), vehicle: water) 110 % of control; (dose: 16.0 mg/kg/injection, schedule: Q01DX009 (ip), vehicle: water) 177 % of control; (dose: 16.0 mg/kg/injection, schedule: Q01DX009 (sc), vehicle: water) 270 % of control. For the same compound, the T/C is 235 % of control (dose: 16.0 mg/kg/injection, schedule: Q03HX008 (sc), vehicle: water); 155 % of control (dose: 16.0 mg/kg/injection, schedule: Q03HX024 (sc), vehicle: water); 180 % of control (dose: 32.0 mg/kg/injection, schedule: Q01DX009 (sc), vehicle: water); 210 % of control (dose: 32.0 mg/kg/injection, schedule: Q03HX008 (sc), vehicle: water); 100 % of control (dose: 32.0 mg/kg/injection, schedule: Q03HX024 (sc), vehicle: water); 205 % of control (dose: 32.0 mg/kg/injection, schedule: Q04DX003 (sc), vehicle: water). The T/C runs as follows: (dose: 64.0 mg/kg/injection, schedule: Q01DX001 (sc), vehicle: water) 215 % of control; (dose: 64.0 mg/kg/injection, schedule: Q04DX003 (sc), vehicle: water) 260 % of control; (dose: 128.0 mg/kg/injection, schedule: Q01DX001 (sc), vehicle: water) 240 % of control; (dose: 128.0 mg/kg/injection, schedule: Q04DX003 (sc), vehicle: water) 245 % of control.

As to `COc1ccc2cc1Oc1ccc(cc1)C[C@H]1c3cc(c(OC)cc3CCN1C)Oc1c(OC)c(OC)cc3c1[C@H](C2)N(C)CC3`, the T/C reads like this: (dose: 37.5 mg/kg/injection, schedule: Q01DX009 (sc), vehicle: methylcellulose (MC)) 90 % of control; (dose: 37.5 mg/kg/injection, schedule: Q01DX009 (sc), vehicle: other) 90 % of control; (dose: 39.0 mg/kg/injection, schedule: Q01DX009 (sc), vehicle: other) 100 % of control and 103 % of control; (dose: 65.0 mg/kg/injection, schedule: Q01DX009 (sc), vehicle: other) 100 % of control and 103 % of control; (dose: 75.0 mg/kg/injection, schedule: Q01DX009 (sc), vehicle: methylcellulose (MC)) 90 % of control; (dose: 75.0 mg/kg/injection, schedule: Q01DX009 (sc), vehicle: other) 92 % of control. In addition, the T/C runs as follows: (dose: 108.0 mg/kg/injection, schedule: Q01DX009 (sc), vehicle: other) 94 % of control and 95 % of control; (dose: 150.0 mg/kg/injection, schedule: Q01DX009 (sc), vehicle: methylcellulose (MC)) 95 % of control; (dose: 150.0 mg/kg/injection, schedule: Q01DX009 (sc), vehicle: other) 96 % of control; (dose: 180.0 mg/kg/injection, schedule: Q01DX009 (sc), vehicle: other) 97 % of control and 100 % of control; (dose: 300.0 mg/kg/injection, schedule: Q01DX009 (sc), vehicle: other) 88 % of control and 91 % of control and 82 % of control; (dose: 600.0 mg/kg/injection, schedule: Q01DX009 (sc), vehicle: other) 70 % of control.
